Active and inactive are the calls of the source. How the calls were made is not given here.
biological target: glucose-6-phosphate dehydrogenase-6-phosphogluconolactonase [Plasmodium falciparum 3D7]; experiment: PfG6PD enzyme inhibitors, orthogonal readout, SAR follow-up, orthogonal assay for PfG6PD antimalarial inhibitor project, biochemical, direct NADPH end-point detection, set 2 (AID 602132); settings: recombinant PfG6PD

| Compound | IC50 |
| --- | --- |
| CCN1CCCC1CNC(=O)c1ccc2c(c1)NC(=O)C(Cc1ccccc1F)S2 (stereo unspecified) | > 80 µM (inactive) |
| O=C(NCCN1CCCCC1)c1ccc2c(c1)NC(=O)c1ccccc1S2 | 25.4 µM |
| CCN1CCC[C@@H]1CNC(=O)c1ccc2c(c1)NC(=O)c1ccccc1S2 | 6.69 µM |
| O=C1Nc2cc(C(=O)NCC3CCCN3)ccc2S/C1=C\c1ccccc1F (stereo unspecified) | > 80 µM (inactive) |
| CCN1CCCC1CNC(=O)c1ccc2c(c1)NC(=O)/C(=C/c1cccc(F)c1F)S2 (stereo unspecified) | > 80 µM (inactive) |
| CC(C)(C)OC(=O)N1CCCC1CNC(=O)c1ccc2c(c1)NC(=O)/C(=C/c1ccccc1F)S2 (stereo unspecified) | > 80 µM (inactive) |
| CCN1CCC[C@H]1CNC(=O)c1ccc2c(c1)NC(=O)c1ccccc1S2 | 64.8 µM |
| CCC(C)N1CCCC1CNC(=O)c1ccc2c(c1)NC(=O)c1ccccc1S2 (stereo unspecified) | > 80 µM (inactive) |
| CCC(C)N(CCNC(=O)c1ccc2c(c1)NC(=O)c1ccccc1S2)C1CCCCC1 (stereo unspecified) | 25 µM |
| CCN1CCCC1CNC(=O)c1ccc2c(c1)NC(=O)/C(=C/c1ccc3ccccc3c1)S2 (stereo unspecified) | > 80 µM (inactive) |
| CCN1CCCC1CNC(=O)c1ccc2c(c1)NC(=O)/C(=C/c1cccc(F)c1)S2 (stereo unspecified) | > 80 µM (inactive) |
| CCCN1CCCC1CNC(=O)c1ccc2c(c1)NC(=O)/C(=C/c1ccccc1F)S2 (stereo unspecified) | > 80 µM (inactive) |
| O=C(NCCN1CCOCC1)c1ccc2c(c1)NC(=O)c1ccccc1S2 | > 80 µM (inactive) |
| CCN1CCCC1CNC(=O)c1ccc2c(c1)NC(=O)/C(=C/c1ccc(F)cc1)S2 (stereo unspecified) | > 80 µM (inactive) |
| NC1CCN(C(=O)c2ccc3c(c2)NC(=O)c2ccccc2S3)C1 (stereo unspecified) | > 80 µM (inactive) |

Continued, values first:

| IC50 | Compound |
| --- | --- |
| > 80 µM (inactive) | CCN1CCCC1CNC(=O)c1ccc2c(c1)NC(=O)/C(=C/c1c(F)cccc1F)S2 (stereo unspecified) |
| > 80 µM (inactive) | NCCNC(=O)c1ccc2c(c1)NC(=O)c1ccccc1S2 |
| > 80 µM (inactive) | NC1CCN(C(=O)c2ccc3c(c2)NC(=O)/C(=C/c2ccccc2F)S3)C1 (stereo unspecified) |
| > 80 µM (inactive) | O=C(NCCNC1CCCCC1)c1ccc2c(c1)NC(=O)c1ccccc1S2 |
| > 80 µM (inactive) | CCN(CC)CCCC(C)Nc1ccnc2cc(Cl)ccc12 (stereo unspecified) |
| > 80 µM (inactive) | CN(C)c1ccccc1CNC(=O)c1ccc2c(c1)NC(=O)/C(=C/c1ccccc1F)S2 |

From PubChem BioAssay AID602132 (Sanford-Burnham Center for Chemical Genomics, 2011)
